In patent US12059393B2, “Compositions for topical treatment of radiation dermatitis” (Akos Biosciences, Inc, priority 2022, dated 2024):

Tested on: 3D in vitro skin model containing epidermal keratinocytes and dermal fibroblasts
Experiment: LDH cytotoxicity assay in 3D in vitro skin model
Assay type: cell-based
Conditions: positive control, no UV; defines 100% cytotoxicity
Description: A 3D in vitro skin model containing epidermal keratinocytes and dermal fibroblasts was used. Some tissues were irradiated with 200 mJ UVB/cm^2. Test materials were applied topically for 24 hours (after UVB exposure) and an MTT assay was used to check the viability of cells. The following treatment groups were used: • olive oil (no CBD); • CBD in olive oil in concentrations of 30, 60, 120, and 250 mg/mL; • No treatment; and • Triton-X® as positive control.
Cytotoxicity was assessed with a lactate dehydrogenase (LDH) assay using media collected from the wells of the tissues. Increased LDH activity is an indicator of damaged or dead cells.
The results are provided in the following Table A, with the untreated group defining 0% cytotoxicity and Triton-X defining 100% cytotoxicity. Lower cytotoxicity is better. * indicates p≤0.05 and ** indicates p≤0.01 statistical significance after performing unpaired t-test.

Triton-X
Cytotoxicity (%): 100%
